According to patent publication US20260356856A1, “KRAS G12S AND G12C INHIBITORS” (MIRATI THERAPEUTICS, INC., priority 2023, published 2026):

How the values were obtained:
[1] = target: T1, KRas G12C (Homo sapiens, UniProt P01116, G12C); assay: KRas binding assay, TR-FRET displacement of Cy5 labelled tracer; conditions: 60-minute incubation at room temperature, 1% DMSO, pH 7.5
T1 construct: Biotinylated KRas (corresponding to amino acids 1-169, produced at Accelegan Inc.); biotin (biotinylated); purchased Accelegan Inc
Summary of the method: (§1)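 Final conditions: 1% DMSO, pH 7.5 HEPES buffer, 60 min, room temperature. Protein: biotin-KRas 1-169 with terbium streptavidin. Output: IC50, four-parameter fit of POC.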

[2] = target: T2, KRas G12S (Homo sapiens, UniProt P01116, G12S); assay: as above; conditions: 60-minute incubation at room temperature, 1% DMSO, pH 7.5
T2 construct: Biotinylated KRas (corresponding to amino acids 1-169, produced at Accelegan Inc.); biotin (biotinylated); purchased Accelegan Inc
Summary of the method: as §1

[3] = target: T3, KRas-mediated phosphorylation of ERK in MKN1 cells (Homo sapiens, UniProt P01116); assay: Inhibition of KRas-mediated phosphorylation of ERK (HTRF), MKN1 cells; type: cell-based; conditions: MKN1 cells (KRas WT); HTRF pERK; 3 h incubation
T3 construct: pERK HTRF read-out
Procedure: Inhibition of KRas Phosphorylation of ERK (HTRF) by Exemplary Compounds of Formula (Ia) or (Ib)
Cisbio HTRF Advanced pERK Assay Catalog #64AERPEH • Cells: MKN1, PSN1 • Procedure: • 1. Day 1: Seed 6,000 cells/well −25 μl/well in 384-well white solid bottom plate; RPM1_10% FBS. Incubate overnight at 37 °C/5% CO2. • 2.

[4] = target: T4, KRas-mediated phosphorylation of ERK in A549 cells (Homo sapiens, UniProt P01116, G12S); assay: Inhibition of KRas-mediated phosphorylation of ERK (HTRF), A549 cells; type: cell-based; conditions: HTRF pERK, 3 h incubation
T4 construct: pERK HTRF read-out

[5] = target: T5, KRas WT (Homo sapiens, UniProt P01116); assay: KRas binding assay, TR-FRET displacement of Cy5 labelled tracer; conditions: 60-minute incubation at room temperature, 1% DMSO, pH 7.5
T5 construct: Biotinylated KRas (corresponding to amino acids 1-169, produced at Accelegan Inc.); biotin (biotinylated); purchased Accelegan Inc
Summary of the method: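 Biotinylated KRas (aa 1-169) incubated with Cy5-labelled tracer, terbium streptavidin and compound (1% DMSO final) in 50 mM HEPES pH 7.5, 5 mM MgCl2, 0.005% Tween-20, 1 mM DTT. Tracer displacement read by TR-FRET after 60 min at room temperature; POC values fitted to 4-parameter IC50 equation.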

T1 sequence (P01116 1-169 isoform P01116-2 G12C): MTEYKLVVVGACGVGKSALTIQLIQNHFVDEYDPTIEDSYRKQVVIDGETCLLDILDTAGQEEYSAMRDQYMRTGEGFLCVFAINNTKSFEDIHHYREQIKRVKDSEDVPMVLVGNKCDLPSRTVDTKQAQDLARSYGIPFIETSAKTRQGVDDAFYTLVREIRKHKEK
T2 sequence (P01116 1-169 isoform P01116-2 G12S): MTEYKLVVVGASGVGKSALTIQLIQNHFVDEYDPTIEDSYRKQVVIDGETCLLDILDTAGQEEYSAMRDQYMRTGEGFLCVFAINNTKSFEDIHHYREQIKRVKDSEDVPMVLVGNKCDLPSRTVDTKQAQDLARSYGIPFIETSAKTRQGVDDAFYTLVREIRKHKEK
T4 sequence (P01116 1-188 isoform P01116-2 G12S): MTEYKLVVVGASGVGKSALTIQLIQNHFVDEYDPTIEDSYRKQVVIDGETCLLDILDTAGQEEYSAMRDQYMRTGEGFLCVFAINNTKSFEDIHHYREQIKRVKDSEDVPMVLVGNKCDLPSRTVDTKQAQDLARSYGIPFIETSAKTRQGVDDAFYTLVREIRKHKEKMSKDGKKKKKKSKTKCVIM
T3 sequence (P01116 1-188 isoform P01116-2): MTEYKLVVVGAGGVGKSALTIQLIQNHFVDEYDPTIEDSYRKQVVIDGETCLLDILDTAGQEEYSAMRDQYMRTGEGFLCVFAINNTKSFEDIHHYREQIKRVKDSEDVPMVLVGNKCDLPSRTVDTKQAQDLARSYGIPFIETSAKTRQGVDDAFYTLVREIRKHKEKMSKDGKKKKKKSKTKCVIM
T5 sequence (P01116 1-169 isoform P01116-2): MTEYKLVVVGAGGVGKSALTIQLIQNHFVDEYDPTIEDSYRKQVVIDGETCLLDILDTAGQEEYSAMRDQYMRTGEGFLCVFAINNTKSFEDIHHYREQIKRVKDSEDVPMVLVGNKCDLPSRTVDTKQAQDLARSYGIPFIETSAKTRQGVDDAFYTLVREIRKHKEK

Compound | IC50 [1] | IC50 [2] | IC50 [3] | IC50 [4] | IC50 [5]
CCc1c(F)ccc2cc(O)cc(-c3ncc4c(N5C[C@@H](C)N(C(=O)n6ccc(C)n6)[C@H](C)C5)nc(OC[C@@]56CCCN5C[C@H](F)C6)nc4c3F)c12 [Example 86, ((2R,6R)-4-(7-(8-ethyl-7-fluoro-3-hydroxynaphthalen-1-yl)-8-fluoro-2-(((2R,7aS)-2-fluorotetrahydro-1H-pyrrolizin-7a(5H)-yl)methoxy)pyrido[4,3-d]pyrimidin-4-yl)-2,6-dimethylpiperazin-1-yl)(3-methyl-1H-pyrazol-1-yl)methanone] | 3450 nM | 2200 nM | 4230 nM | 8960 nM | 2320 nM
CCc1c(F)ccc2cc(O)cc(-c3ncc4c(N5CC6(C(=O)n7ccc(C)n7)CCCC5C6)nc(OC[C@@]56CCCN5C[C@H](F)C6)nc4c3F)c12 (stereo partly drawn) [Example 87, (6-(7-(8-ethyl-7-fluoro-3-hydroxynaphthalen-1-yl)-8-fluoro-2-(((2R,7aS)-2-fluorotetrahydro-1H-pyrrolizin-7a(5H)-yl)methoxy)pyrido[4,3-d]pyrimidin-4-yl)-6-azabicyclo[3.2.1]octan-1-yl)(3-methyl-1H-pyrazol-1-yl)methanone] | 365 nM | 1680 nM | 4060 nM | > 10000 nM | 1580 nM
CCc1c(F)ccc2cc(O)cc(-c3ncc4c(N5CCC(COC)(C(=O)n6ccc(C)n6)CC5)nc(OC[C@@]56CCCN5C[C@H](F)C6)nc4c3F)c12 [Example 89, (1-(7-(8-ethyl-7-fluoro-3-hydroxynaphthalen-1-yl)-8-fluoro-2-(((2R,7aS)-2-fluorotetrahydro-1H-pyrrolizin-7a(5H)-yl)methoxy)pyrido[4,3-d]pyrimidin-4-yl)-4-(methoxymethyl)piperidin-4-yl)(3-methyl-1H-pyrazol-1-yl)methanone] | 2470 nM | 6630 nM | > 10000 nM | > 10000 nM | 8490 nM
CCc1c(F)ccc2cc(O)cc(-c3ncc4c(N5CC6CC5CC6C(=O)n5ccc(C)n5)nc(OC[C@@]56CCCN5C[C@H](F)C6)nc4c3F)c12 (stereo partly drawn) [Example 90, (2-(7-(8-ethyl-7-fluoro-3-hydroxynaphthalen-1-yl)-8-fluoro-2-(((2R,7aS)-2-fluorotetrahydro-1H-pyrrolizin-7a(5H)-yl)methoxy)pyrido[4,3-d]pyrimidin-4-yl)-2-azabicyclo[2.2.1]heptan-5-yl)(3-methyl-1H-pyrazol-1-yl)methanone] | 260 nM | 286 nM | 9190 nM | > 10000 nM | 233 nM
CCc1c(F)ccc2cc(O)cc(-c3ncc4c(N5CCC(COC)(C(=O)n6ccc(C)n6)C5)nc(OC[C@@]56CCCN5C[C@H](F)C6)nc4c3F)c12 (stereo partly drawn) [Example 95, (1-(7-(8-ethyl-7-fluoro-3-hydroxynaphthalen-1-yl)-8-fluoro-2-(((2R,7aS)-2-fluorotetrahydro-1H-pyrrolizin-7a(5H)-yl)methoxy)pyrido[4,3-d]pyrimidin-4-yl)-3-(methoxymethyl)pyrrolidin-3-yl)(3-methyl-1H-pyrazol-1-yl)methanone] | 257 nM | 1600 nM | > 10000 nM | 4220 nM | 1080 nM
CCc1c(F)ccc2cc(O)cc(-c3ncc4c(N5C[C@H](C(=O)n6ccc(C)n6)[C@@H](C)C5)nc(OC[C@@]56CCCN5C[C@H](F)C6)nc4c3F)c12 [Example 96, ((3R,4R)-1-(7-(8-ethyl-7-fluoro-3-hydroxynaphthalen-1-yl)-8-fluoro-2-(((2R,7aS)-2-fluorotetrahydro-1H-pyrrolizin-7a(5H)-yl)methoxy)pyrido[4,3-d]pyrimidin-4-yl)-4-methylpyrrolidin-3-yl)(3-methyl-1H-pyrazol-1-yl)methanone] | 375 nM | 339 nM | > 10000 nM | > 10000 nM | 162 nM
CCc1c(F)ccc2cc(O)cc(-c3ncc4c(N5CCC(C(=O)n6ccc(C)n6)C6CC65)nc(OC[C@@]56CCCN5C[C@H](F)C6)nc4c3F)c12 (stereo partly drawn) [Example 97, (2-(7-(8-ethyl-7-fluoro-3-hydroxynaphthalen-1-yl)-8-fluoro-2-(((2R,7aS)-2-fluorotetrahydro-1H-pyrrolizin-7a(5H)-yl)methoxy)pyrido[4,3-d]pyrimidin-4-yl)-2-azabicyclo[4.1.0]heptan-5-yl)(3-methyl-1H-pyrazol-1-yl)methanone] | 395 nM | 201 nM | 2850 nM | 2120 nM | 125 nM

Stronger by IC50 [1], values ahead:

IC50 [1] | IC50 [2] | IC50 [3] | IC50 [4] | IC50 [5] | Compound
58 nM | 26 nM | 1050 nM | 54 nM | – | CCc1c(F)ccc2cc(O)cc(-c3ncc4c(N5CC[C@H]6[C@@H](C5)[C@H]6C(=O)n5ccc(C)n5)nc(OC[C@@]56CCCN5C[C@H](F)C6)nc4c3F)c12 (stereo in doubt) [Example 99, (cis-3-(7-(8-ethyl-7-fluoro-3-hydroxynaphthalen-1-yl)-8-fluoro-2-(((2R,7aS)-2-fluorotetrahydro-1H-pyrrolizin-7a(5H)-yl)methoxy)pyrido[4,3-d]pyrimidin-4-yl)-3-azabicyclo[4.1.0]heptan-7-yl)(3-methyl-1H-pyrazol-1-yl)methanone]
116 nM | 1060 nM | 8070 nM | 589 nM | 1760 nM | CCc1c(F)ccc2cc(O)cc(-c3ncc4c(N5CCC(OC)(C(=O)n6ccc(C)n6)CC5)nc(OC[C@@]56CCCN5C[C@H](F)C6)nc4c3F)c12 [Example 88, (1-(7-(8-ethyl-7-fluoro-3-hydroxynaphthalen-1-yl)-8-fluoro-2-(((2R,7aS)-2-fluorotetrahydro-1H-pyrrolizin-7a(5H)-yl)methoxy)pyrido[4,3-d]pyrimidin-4-yl)-4-methoxypiperidin-4-yl)(3-methyl-1H-pyrazol-1-yl)methanone]
141 nM | 62 nM | 853 nM | 210 nM | 317 nM | CCc1c(F)ccc2cc(O)cc(-c3ncc4c(N5CCC6CC6(C(=O)n6ccc(C)n6)CC5)nc(OC[C@@]56CCCN5C[C@H](F)C6)nc4c3F)c12 (stereo partly drawn) [Example 91, (4-(7-(8-ethyl-7-fluoro-3-hydroxynaphthalen-1-yl)-8-fluoro-2-(((2R,7aS)-2-fluorotetrahydro-1H-pyrrolizin-7a(5H)-yl)methoxy)pyrido[4,3-d]pyrimidin-4-yl)-4-azabicyclo[5.1.0]octan-1-yl)(3-methyl-1H-pyrazol-1-yl)methanone]
3 nM | 17 nM | > 10000 nM | 1380 nM | 59 nM | CCc1c(F)ccc2cc(O)cc(-c3ncc4c(NCC56CC(C(=O)n7ccc(C)n7)(C5)C6)nc(OC[C@@]56CCCN5C[C@H](F)C6)nc4c3F)c12 [Example 92, (3-(((7-(8-ethyl-7-fluoro-3-hydroxynaphthalen-1-yl)-8-fluoro-2-(((2R,7aS)-2-fluorotetrahydro-1H-pyrrolizin-7a(5H)-yl)methoxy)pyrido[4,3-d]pyrimidin-4-yl)amino)methyl)bicyclo[1.1.1]pentan-1-yl)(3-methyl-1H-pyrazol-1-yl)methanone]
4 nM | 3 nM | 325 nM | 26 nM | 13 nM | CCc1c(F)ccc2cc(O)cc(-c3ncc4c(NCC5CC(C(=O)n6ccc(C)n6)C5)nc(OC[C@@]56CCCN5C[C@H](F)C6)nc4c3F)c12 (stereo partly drawn) [Example 93, (3-(((7-(8-ethyl-7-fluoro-3-hydroxynaphthalen-1-yl)-8-fluoro-2-(((2R,7aS)-2-fluorotetrahydro-1H-pyrrolizin-7a(5H)-yl)methoxy)pyrido[4,3-d]pyrimidin-4-yl)amino)methyl)cyclobutyl)(3-methyl-1H-pyrazol-1-yl)methanone]
15 nM | 232 nM | 6200 nM | 1070 nM | 306 nM | CCc1c(F)ccc2cc(O)cc(-c3ncc4c(N5CCC(C)(C(=O)n6ccc(C)n6)C5)nc(OC[C@@]56CCCN5C[C@H](F)C6)nc4c3F)c12 (stereo partly drawn) [Example 94, (1-(7-(8-ethyl-7-fluoro-3-hydroxynaphthalen-1-yl)-8-fluoro-2-(((2R,7aS)-2-fluorotetrahydro-1H-pyrrolizin-7a(5H)-yl)methoxy)pyrido[4,3-d]pyrimidin-4-yl)-3-methylpyrrolidin-3-yl)(3-methyl-1H-pyrazol-1-yl)methanone]
73 nM | 20 nM | 2490 nM | 61 nM | 178 nM | CCc1c(F)ccc2cc(O)cc(-c3ncc4c(N5CC6CC(C(=O)n7ccc(C)n7)C6C5)nc(OC[C@@]56CCCN5C[C@H](F)C6)nc4c3F)c12 (stereo partly drawn) [Example 98, (3-(7-(8-ethyl-7-fluoro-3-hydroxynaphthalen-1-yl)-8-fluoro-2-(((2R,7aS)-2-fluorotetrahydro-1H-pyrrolizin-7a(5H)-yl)methoxy)pyrido[4,3-d]pyrimidin-4-yl)-3-azabicyclo[3.2.0]heptan-6-yl)(3-methyl-1H-pyrazol-1-yl)methanone]
